Results reported in ChEMBL document CHEMBL1141524 (Bioorg Med Chem Lett, 2008).
Where “and” joins values, the source holds several entries; their conditions need not be identical. Equal entries are not always repeated. Non-standard residues stand in square brackets, D forms with d. Residues, ends and D or L forms follow the SMILES beside them. Gly(N-4-hydroxybenzyl) = O=C(O)CNCc1ccc(O)cc1

experiment: Displacement of [3H]neurotensin from pig NTR1; set-up: species or system Sus scrofa

Going from CC[C@H](C)[C@H](NC(=O)[C@H](Cc1ccc(O)cc1)NC(=O)[C@@H]1CCCN1C(=O)CN(CCCCN)C(=O)[C@@H](N)CCCCN)C(=O)N[C@@H](CC(C)C)C(=O)O to CC[C@H](C)[C@H](NC(=O)[C@H](Cc1ccc(O)cc1)NC(=O)[C@@H]1CCCN1C(=O)[C@H](CCCCN)NC(=O)CNCCCCN)C(=O)N[C@@H](CC(C)C)C(=O)O, the Ki falls from 5.7 nM to 0.45 nM (13-fold).

CC[C@H](C)[C@H](NC(=O)[C@H](Cc1ccc(O)cc1)N1CC=C[C@]2(CCCN2C(=O)[C@H](CCCNC(=N)N)NC(=O)[C@@H](N)CCCNC(=N)N)C1=O)C(=O)N[C@@H](CC(C)C)C(=O)O and CC[C@H](C)[C@H](NC(=O)[C@H](Cc1ccc(O)cc1)N1C(=O)NC(=O)C2(CCCN2C(=O)[C@H](CCCNC(=N)N)NC(=O)[C@@H](N)CCCNC(=N)N)C1=O)C(=O)N[C@@H](CC(C)C)C(=O)O (some centres not stated) are within 1.5-fold of each other in Ki: 7400 nM for the first, 10000 nM for the second.

Compared with CC[C@H](C)[C@H](NC(=O)[C@H](Cc1ccc(O)cc1)NC(=O)[C@@H]1CCCN1C(=O)[C@H](CCCNC(=N)N)NC(=O)[C@@H](N)CCCNC(=N)N)C(=O)N[C@@H](CC(C)C)C(N)=O, CC[C@H](C)[C@H](NC(=O)CN(Cc1ccc(O)cc1)C(=O)[C@@H]1CCCN1C(=O)[C@H](CCCCN)NC(=O)[C@@H](N)CCCCN)C(=O)N[C@@H](CC(C)C)C(=O)O (H-KKP[Gly(N-4-hydroxybenzyl)]IL-OH) is 61000-fold higher in Ki: 0.18 nM for the first, 11000 nM for the second. The first binds more tightly here.

First: H-RRAPYIL-OH
Second: CC[C@H](C)[C@H](NC(=O)[C@H](Cc1ccc(O)cc1)NC(=O)C[C@@H]1CCCN1C(=O)[C@H](CCCNC(=N)N)NC(=O)[C@@H](N)CCCNC(=N)N)C(=O)N[C@@H](CC(C)C)C(=O)O
The Ki of the first is 2.9-fold lower: 9.6 nM for the first, 28 nM for the second. The first binds more tightly here.

Going from H-RRPYILA-OH to H-RRPYAIL-OH, the Ki rises from 0.27 nM to 6.8 nM (25-fold). The first binds more tightly here.

Going from CC[C@H](C)[C@H](NC(=O)[C@H](Cc1ccc(O)cc1)NC(=O)[C@@H]1CCCN1C(=O)[C@H](CCCNC(=N)N)NC(=O)C[N+](C)(C)C)C(=O)N[C@@H](CC(C)C)C(=O)O to CC[C@H](C)[C@H](NC(=O)[C@H](Cc1ccc(O)cc1)N1C(=O)NC(=O)C2(CCCN2C(=O)[C@H](CCCNC(=N)N)NC(=O)[C@@H](N)CCCNC(=N)N)C1=O)C(=O)N[C@@H](CC(C)C)C(=O)O (single isomer, unassigned; diastereomer 1), the Ki rises from 0.65 nM to 1400 nM (2200-fold). The first binds more tightly here.

Going from CC[C@@H](C)[C@H](NC(=O)[C@H](Cc1ccc(O)cc1)N1CC=CC[C@]2(CCCN2C(=O)[C@H](CCCNC(=N)N)NC(=O)[C@@H](N)CCCNC(=N)N)C1=O)C(=O)N[C@@H](CC(C)C)C(=O)O to CC[C@H](C)[C@H](NC(=O)[C@H](Cc1ccc(O)cc1)NC(=O)[C@@H]1CCCN1C(=O)[C@H](CCCCN)NC(=O)[C@@H](N)CCCCN)C(=O)N[C@@H](CC(C)C)C(=O)O, the Ki falls from 18000 nM to 2.6 nM (6900-fold). The second binds more tightly here.

Compared with CC[C@H](C)[C@H](NC(=O)[C@H](Cc1ccc(O)cc1)NC(=O)[C@@H]1CCCN1C(=O)[C@H](CCCNC(=N)N)NC(=O)CCC(=O)O)C(=O)N[C@@H](CC(C)C)C(=O)O, H-DRPYIL-OH is 15-fold lower in Ki: 2300 nM for the first, 150 nM for the second. The second binds more tightly here.

For CC[C@H](C)[C@H](NC(=O)[C@H](Cc1ccc(O)cc1)N1CC/C=C\C[C@H]2CCN(C(=O)[C@H](CCCNC(=N)N)NC(=O)[C@@H](N)CCCNC(=N)N)[C@@H]2C1=O)C(=O)N[C@@H](CC(C)C)C(=O)O, the Ki was 2400 nM and 8600 nM.
